Entries after “also recorded” stand apart in the source; their conditions may differ. Like-named read-outs stand apart in the source and are kept apart here. Marks after values point to notes of the source that are not given here.
Columns and labels:
[1] = n-octanol/PBS distribution coefficient (logD), shake-flask method; format: physicochemical; settings: PBS pH 7.4
Procedure: The radiolabeling of PSMA-617 (Advanced Biochemical Compounds, ABX GmbH, Radeberg, Germany) with ^161Tb was performed under standard labeling conditions (Supplementary material). […] The n-octanol/PBS distribution coefficient (logD) was determined for ^161Tb-PSMA-617 (Supplementary material). All of these experiments were performed as previously reported for ^177Lu-PSMA-617 [27].
It was diluted in PBS pH 7.4 (∼500 kBq, 25 µL, 0.01 nmol) and added to polypropylene tubes containing 1475 µL PBS and 1500 µL n-octanol followed by vigorous vortexing for 1 min. Phase separation was obtained by centrifugation at 1200 rcf for 6 min. The distribution coefficients were calculated as the logarithm of the ratio of counts per minute (cpm) measured in the n-octanol phase relative to the cpm measured in the PBS pH 7.4 phase using a γ-counter (Perkin Elmer, Wallac Wizard 1480). At least three experiments were performed in quintuplicate.

[2] = system: PC-3 PIP tumor-bearing mice; test: Therapy study - assessment of potential early side effects; format: in vivo; design: key to Histology: Bone marrow sternum / Histology: Sternum (bone) / Histology: Bone marrow femur / Histology: Femur and tibia (bone) / Histology: Salivary glands / Histology: Mandibular lymph node: NHAIR: no histological abnormality is recognized; IC: increased cellularity, myeloid lineage; SH: Sinus histiocytosis; LH: lymphoid hyperplasia; 1: minimal severity; 2: mild; 3: moderate; 4: marked; 5: severe; settings: for ALB (blood plasma) / ALP (blood plasma) / BUN (blood plasma) / CRE (blood plasma) / TBIL (blood plasma): at euthanasia; for Brain mass / Kidney mass / Liver mass / Spleen Mass: day of euthanasia; for Histology: Bone marrow femur / Histology: Bone marrow sternum / Histology: Femur and tibia (bone) / Histology: Mandibular lymph node / Histology: Salivary glands / Histology: Sternum (bone): individual mice M1-M6
Procedure: Potential early side-effects related to the exposure to radiation were evaluated by the assessment of absolute and relative (to body and to brain) organ weights, selected clinical chemistry plasma parameters including creatinine (CRE), blood urea nitrogen (BUN), alkaline phosphatase (ALP), total bilirubin (TBIL), and albumin (ALB), as well as via histological analysis of bone marrow and salivary glands. The data were analyzed for statistical significance (Supplementary material).
Body and organ mass and mass ratios: As a measure to identify undesired side effects, body weights were compared at the day when the first control mouse had to be euthanized (Day 18; Table S3). The relative body weight (RBW) and the relative tumor volume (RTV) were calculated as stated in the main manuscript. Kidneys, liver, spleen and brain were collected and weighed at the day of euthanasia when an endpoint was reached or at the end of the study at Day 84 (Table S3). The organ mass-to-body mass and the organ-mass-to-brain-mass ratios were calculated for kidneys, liver and spleen (Table S4). The average organ masses of mice from each group were analyzed for significance using a one-way ANOVA test with a Tukey’s post correction (GraphPad Prism software, version 7). A p-value of <0.05 was considered as statistically significant.
Blood plasma parameters: Blood was taken from the retrobulbar vein immediately before euthanasia for determination of blood plasma parameters. The values of creatinine (CRE), blood urea nitrogen (BUN), alkaline phosphatase (ALP), total bilirubin (BIL) and albumin (ALB) were determined in the plasma after centrifugation of the blood using a dry chemistry analyzer (DRI-CHEM 4000i, FUJIFILM, Japan) (Table S5). The average blood plasma parameters of each group were analyzed for significance using a one-way ANOVA test with a Tukey’s post correction (GraphPad Prism software, version 7). A p-value of <0.05 was considered as statistically significant.
Necropsy, tissue processing and histological examination: After euthanasia and exsanguination, mice were dissected and, after a full macroscopic examination, sternum, femur and salivary glands were quickly removed and fixed in 4% neutral-buffered formalin (Formafix, Hittnau, Switzerland). After adequate fixation, femoral and sternal bones were decalcified in 10% ethylenediamine tetraacetic acid over a period of 5 days. Both bones and the salivary glands were subsequently trimmed, dehydrated through graded alcohols and routinely paraffin wax embedded. Sections (3–5 µm) were prepared, mounted on glass slides and routinely stained with hematoxylin and eosin (HE). Microscopic findings in the HE-stained livers were classified with standard pathological nomenclature and grading system.

[3] = system: PSMA-positive PC-3 PIP tumor cells; test: Tumor cell uptake and internalization; format: cell-based, human; settings: for Internalized fraction: PC-3 PIP
[4] = system: PSMA-negative PC-3 flu tumor cells; test: Tumor cell uptake and internalization; format: cell-based; settings: 2–4 h incubation
[5] = system: PC-3 PIP tumor-bearing mice; settings: for Median Survival: control 19 days
Procedure: Athymic nude BALB/c mice were obtained from Charles River Laboratories (Sulzfeld, Germany) at the age of 5–6 weeks. […] Therapy studies were performed with mice inoculated with PC-3 PIP cells (4 × 10^6 cells in HBSS with Ca^2+/Mg^2+) on the right shoulder (Supplementary material).
Three groups of mice (n = 6) were injected with only saline, ^161Tb-PSMA-617 (5.0 MBq; 1 nmol/mouse), or ^161Tb-PSMA-617 (10 MBq; 1 nmol/mouse) at Day 0 of the therapy, 6 days after PC-3 PIP tumor cell inoculation (Table 1). The mice were monitored by measuring body weights and the tumor sizes every other day over 12 weeks. Mice were euthanized when pre-defined endpoint criteria were reached, or when the study was terminated at Day 84 (Supplementary material). The relative body weight (RBW) was defined as [BWx/ BW0], where BWx is the body weight in gram at a given day x, and BW0 the body weight in grams at Day 0. The tumor dimension was determined by measuring the longest tumor axis (L) and its perpendicular axis (W) with a digital caliper. The tumor volume (V) was calculated according to the eq. [V = 0.5 * (L * W^2)]. The relative tumor volume (RTV) was defined as [TVx/TV0], where TVx is the tumor volume in mm^3 at a given day x, and TV0 the tumor volume in mm^3 at Day 0.
The efficacy of the radionuclide therapy was assessed by the tumor growth delay (TGDx), which was calculated as the time required for the tumor volume to increase x-fold over the initial volume at Day 0. The tumor growth delay index [TGDIx = TGDx(T)/TGDx(C)] was calculated as the TGDx ratio of treated mice (T) over control mice (C) for a 2-fold (x = 2, TGD2) and 5-fold (x = 5, TGD5) increase of the initial tumor volume. Statistical analysis was performed by a one-way ANOVA with Tukey’s multiple comparison post-test using GraphPad Prism software (version 7). A value of p < 0.05 was considered statistically significant. The median survival was calculated by Kaplan–Meier curves using GraphPad Prism software (version 7).
Methods: The therapy was started at Day 0 by injecting mice with the radioligands, 6 days after PC-3 PIP tumor cell inoculation (4×10^6 cells in HBSS with Ca^2+/Mg^2+) on the right shoulder.
Endpoint criteria: Mice were euthanized when a predefined endpoint criterion was reached or when the study was finalized at Day 84. Endpoint criteria were defined as (i) body weight loss of >15%, (ii) a tumor volume of >800 mm^3 (iii) a combination of body weight loss of >10% and a tumor volume of >700 mm^3 or (iv) signs of unease and pain or a combination thereof.

O=C([O-])CN1CCN(CC(=O)[O-])CCN(CC(=O)NCC2CCC(C(=O)NC(Cc3ccc4ccccc4c3)C(=O)NCCCCC(NC(=O)NC(CCC(=O)O)C(=O)O)C(=O)O)CC2)CCN(CC(=O)[O-])CC1.[161Tb+3] (centres unmarked) [^161Tb-PSMA-617]
n-octanol/PBS distribution coefficient (logD value) [1]: −3.9 ± 0.1 | Body weight at Day 0 ([2]; 5.0 MBq): 17 ± 1.2 g | Body weight at Day 18 ([2]; 5.0 MBq): 17 ± 1.2 g | Body weight at Day of euthanasia ([2]; 5.0 MBq): 15 ± 1.7 g | Body weight over time ([2]; 5.0 MBq): body weight loss over time | Kidney-to-body ratio ([2]; 5.0 MBq): 0.014 ± 0.001 | Kidney-to-brain ratio ([2]; 5.0 MBq): 0.50 ± 0.11 | Liver-to-body ratios ([2]; 5.0 MBq): 0.048 ± 0.010 | Liver-to-brain ratios ([2]; 5.0 MBq): 1.8 ± 0.71 | Spleen-to-body ratios ([2]; 5.0 MBq): 0.004 ± 0.001 | Spleen-to-brain ratios ([2]; 5.0 MBq): 0.16 ± 0.05 | Undesired side-effects ([2]; 5.0 MBq and 10 MBq): no signs of undesired side-effects were detectable | ALB (blood plasma) ([2]; 5.0 MBq): 21 ± 1 g/L | ALP (blood plasma) ([2]; 5.0 MBq): 44 ± 1 U/L | BUN (blood plasma) ([2]; 5.0 MBq): 8.3 ± 0.50 mmol/L | CRE (blood plasma) ([2]; 5.0 MBq): <18 µmol/L | TBIL (blood plasma) ([2]; 5.0 MBq): 4 ± 1 µmol/L | Brain mass ([2]; 5.0 MBq): 371 ± 15 mg | Kidney mass ([2]; 5.0 MBq): 208 ± 19 mg | Liver mass ([2]; 5.0 MBq): 737 ± 143 mg | Spleen Mass ([2]; 5.0 MBq): 63 ± 13 mg | Histology: Bone marrow femur ([2]; 5 MBq): NHAIR | Histology: Bone marrow sternum ([2]; 5 MBq): NHAIR | Histology: Femur and tibia (bone) ([2]; 5 MBq): NHAIR | Histology: Mandibular lymph node ([2]; 5 MBq): NHAIR and SH 1 and LH 1 | Histology: Salivary glands ([2]; 5 MBq): NHAIR | Histology: Sternum (bone) ([2]; 5 MBq): NHAIR | Histological changes in the bone marrow and the salivary glands attributable to application ([2]; 5.0 and 10 MBq/mouse): no histological changes | Blood plasma parameters compared to control group ([2]; 5.0 and 10 MBq/mouse, p>0.05): did not show any significant differences | Body weight at Day 0 ([2]; 10 MBq): 18 ± 1.0*^3) g | Body weight at Day 18 ([2]; 10 MBq): 19 ± 1.2*^4) g | Body weight at Day of euthanasia ([2]; 10 MBq): 19 ± 1.6*^5) g | Body weight over time ([2]; 10 MBq): remained stable | Kidney-to-body ratio ([2]; 10 MBq): 0.014 ± 0.001 | Kidney-to-brain ratio ([2]; 10 MBq): 0.64 ± 0.09^*2) | Liver-to-body ratios ([2]; 10 MBq): 0.054 ± 0.002 | Liver-to-brain ratios ([2]; 10 MBq): 2.5 ± 0.87 | Spleen-to-body ratios ([2]; 10 MBq): 0.005 ± 0.001 | Spleen-to-brain ratios ([2]; 10 MBq): 0.23 ± 0.05^*3) | ALB (blood plasma) ([2]; 10 MBq): 19 ± 1 g/L | ALP (blood plasma) ([2]; 10 MBq): 54 ±15 U/L | BUN (blood plasma) ([2]; 10 MBq): 7.8 ± 1.3 mmol/L | CRE (blood plasma) ([2]; 10 MBq): <18 µmol/L | TBIL (blood plasma) ([2]; 10 MBq): 4 ± 1 µmol/L | Brain mass ([2]; 10 MBq): 402 ± 18 mg | Kidney mass ([2]; 10 MBq): 258 ± 41*^5) mg | Liver mass ([2]; 10 MBq): 994 ± 65*^5) mg | Spleen Mass ([2]; 10 MBq): 92 ± 22*^5) mg | Histology: Bone marrow femur ([2]; 10 MBq): NHAIR | Histology: Bone marrow sternum ([2]; 10 MBq): IC 1 and NHAIR | Histology: Femur and tibia (bone) ([2]; 10 MBq): NHAIR | Histology: Mandibular lymph node ([2]; 10 MBq): SH 2 LH 1 and SH 1 and LH 1 and NHAIR | Histology: Salivary glands ([2]; 10 MBq): NHAIR | Histology: Sternum (bone) ([2]; 10 MBq): NHAIR | PC-3 PIP tumor cell uptake ([3]; 2–4 h incubation): 47–54% | Uptake in PC-3 PIP tumor cells ([3]; 2 h incubation): 47% | Uptake in PC-3 PIP tumor cells ([3]; 4 h incubation): 54% | Internalized fraction ([3]; 2–4 h incubation): 8–11% | Internalized fraction ([3]; 2 h): 8% | Internalized fraction ([3]; 4 h): 11% | Uptake in PC-3 flu tumor cells [4]: < 0.5% | First mouse euthanized ([5]; 5.0 MBq/mouse): 30 days | Last mouse euthanized ([5]; 5.0 MBq/mouse): 66 days | TGDI2 ([5]; 5.0 MBq/mouse): 4.2 ± 1.2 | TGDI3 ([5]; 5.0 MBq/mouse): 2.5 ± 0.6 | Median Survival ([5]; 5.0 MBq/mouse): 36 days | First mouse euthanized ([5]; 10 MBq/mouse): 42 days | Mice still alive at the end of the study at Day 84 ([5]; 10 MBq/mouse, n = 6): two | Mice in which PC-3 PIP tumors disappeared entirely ([5]; 10 MBq/mouse, n = 6, over 12 weeks): two of the six; also recorded: two out of six | Median Survival ([5]; 10 MBq/mouse): 65 days | Last mouse euthanized ([5]; 10 MBq/mouse, study end at Day 84, 2 mice had not reached an endpoint): 84^1) Day
